For the series, the target named is hSA (Homo sapiens, UniProt P02768). Description: hSA binding assay (hSA-coated microtiter plate, streptavidin-polyHRP/ABTS, OD 405 nm). The conditions noted are these: for Bmax: given only for compounds with an Exp 2 value. The procedure: hSA binding assay. Microtiter 96 well plate is coated, overnight at 4° C., using […] of a solution of hSA in PBS ([…]). Plate is washed with PBS and blocked, for 1 hours, using 150 ml, per well, of a 10% solution of Tween 20 in water. After 1 hour the wells are washed with PBS. The hSA binders tested are dissolved in PBS, 100 ml of the tested solutions are then added in the well and incubated for 2 hours. After 2 hours, the solution are discarded and the wells are washed using PBS, 0.1% Tween 20. 100 ml of a solution of streptavidin-polyHRP in PBS 1.375% casein is added to the wells and incubated for 1 more hours. Finally wells are washed with PBS, 0.1% Tween 20, and 100 ml ABTS in phosphate-citrate buffer with sodium perborate is added. After a few minutes OD are read at 405 nm.
Sequence of hSA (P02768 25-609): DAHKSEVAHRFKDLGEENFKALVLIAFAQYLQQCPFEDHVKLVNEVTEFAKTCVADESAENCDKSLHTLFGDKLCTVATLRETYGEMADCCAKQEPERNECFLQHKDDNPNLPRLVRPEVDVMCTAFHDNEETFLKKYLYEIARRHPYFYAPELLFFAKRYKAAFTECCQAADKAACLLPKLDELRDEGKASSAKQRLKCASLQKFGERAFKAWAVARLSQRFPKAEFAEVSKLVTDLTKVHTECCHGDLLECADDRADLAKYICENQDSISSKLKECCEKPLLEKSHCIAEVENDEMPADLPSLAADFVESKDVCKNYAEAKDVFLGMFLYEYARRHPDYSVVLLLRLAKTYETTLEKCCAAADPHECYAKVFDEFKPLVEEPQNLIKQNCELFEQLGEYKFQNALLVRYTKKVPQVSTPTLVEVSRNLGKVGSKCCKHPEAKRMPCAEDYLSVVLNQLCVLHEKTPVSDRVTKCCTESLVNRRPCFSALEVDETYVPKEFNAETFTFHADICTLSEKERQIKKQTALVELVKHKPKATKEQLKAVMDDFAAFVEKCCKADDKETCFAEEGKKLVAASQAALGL
A plurality of compounds according to the invention were prepared. All of the compounds contained the Cys-Pro-Cys moiety. These compounds and an assay control were tested using the above procedure. Some compounds were tested twice (Exp 1 and Exp 2).

As to “RLIEDECPCLW [Compound 58, RLIEDE-LW, "-" represents cysteine-proline-cysteine]”, the “Binding, Exp 1” value is reported as 0.8196.

On to “KLIEDQCPCLW [Compound 55, KLIEDQ-LW, "-" represents cysteine-proline-cysteine]”, for which the “Binding, Exp 1” value is on record as 0.5209.

In the case of “RLIESICPCLW [Compound 61, RLIESI-LW, "-" represents cysteine-proline-cysteine]”, the “Binding, Exp 1” value is on record as 1.238.

For “KLIEYICPCLW [Compound 53, KLIEYI-LW, "-" represents cysteine-proline-cysteine]”, the “Binding, Exp 1” value is reported as 0.3109.

Take “KLIEDICPCLE [Compound 49, KLIEDI-LE, "-" represents cysteine-proline-cysteine]”: the “Binding, Exp 1” value is given as 0.2709.

Consider “RVIEDICPCLW [Compound 19, RVIEDI-LW, "-" represents cysteine-proline-cysteine]”, for which the “Binding, Exp 1” value is 0.06391; the “Binding, Exp 2” value was found to be 0.2112; the Bmax stood at 1.089.

For “RLIEDICPCFW [Compound 10, RLIEDI-FW, "-" represents cysteine-proline-cysteine]”, the “Binding, Exp 1” value is 0.04544.

Take “RLIEDQCPCLW [Compound 16, RLIEDQ-LW, "-" represents cysteine-proline-cysteine]”: the “Binding, Exp 1” value is recorded as 0.06092.

Consider “KLIEVICPCLW [Compound 5, KLIEVI-LW, "-" represents cysteine-proline-cysteine]”, for which the “Binding, Exp 1” value came out at 0.03868.

Regarding “KLIEDICPCVW [Compound 15, KLIEDI-VW, "-" represents cysteine-proline-cysteine]”, the “Binding, Exp 1” value amounted to 0.05545.

As to “KLIEDICPCQW [Compound 48, KLIEDI-QW, "-" represents cysteine-proline-cysteine]”, the “Binding, Exp 1” value was 0.2445.

In the case of “KLIEDICPCLK [Compound 21, KLIEDI-LK, "-" represents cysteine-proline-cysteine]”, the “Binding, Exp 1” value is 0.06947.

Regarding “KLIEDICPCTW [Compound 35, KLIEDI-TW, "-" represents cysteine-proline-cysteine]”, the “Binding, Exp 1” value came out at 0.1327.

On to “RLIEDICPCLH [Compound 63, RLIEDI-LH, "-" represents cysteine-proline-cysteine]”, for which the “Binding, Exp 1” value was found to be 1.877.

“KLIEEICPCLW [Compound 28, KLIEEI-LW, "-" represents cysteine-proline-cysteine]”: the “Binding, Exp 1” value is recorded as 0.09642.

For “RLISDICPCLW [Compound 98, RLISDI-LW, "-" represents cysteine-proline-cysteine]”, the “Binding, Exp 2” value is given as 0.2247 and the Bmax is 1.301.

With “KLLEDICPCLW [Compound 9, KLLEDI-LW, "-" represents cysteine-proline-cysteine]”, the “Binding, Exp 1” value stood at 0.04197.

On to “KTIEDICPCLW [Compound 22, KTIEDI-LW, "-" represents cysteine-proline-cysteine]”, for which the “Binding, Exp 1” value came out at 0.06947; the “Binding, Exp 2” value was determined as 0.1476; the Bmax is given as 1.427.

With “KEIEDICPCLW [Compound 93, KEIEDI-LW, "-" represents cysteine-proline-cysteine]”, the “Binding, Exp 2” value amounted to 0.257 and the Bmax is listed as 1.425.

With “KLIEDICPCFW [Compound 30, KLIEDI-FW, "-" represents cysteine-proline-cysteine]”, the “Binding, Exp 1” value is recorded as 0.1033.

On to “KVIEDICPCLW [Compound 64, KVIEDI-LW, "-" represents cysteine-proline-cysteine]”, for which the “Binding, Exp 1” value is 2.575; the “Binding, Exp 2” value turned out to be 0.1137; the Bmax was 0.3906.

With “RLIEEICPCLW [Compound 57, RLIEEI-LW, "-" represents cysteine-proline-cysteine]”, the “Binding, Exp 1” value is 0.7026.

The values above are taken from US9273092B2, “Selective binding compounds” (RIOGIN Corporation, priority 2011, dated 2016).
